These are literature values, as cited in article PMC9006653 (The Journal of Biological Chemistry, 2022).

For series [1], the system named is 10 human tumor cell lines.

For cycloviolacin O2 [cyO2], the “fold more active than 11 Möbius cyclotides” value in the series on five cancer cell lines is given as “over ten-fold”. The “fold more potent (cytotoxicity) compared to varv A and varv F” value in series [1] was “over 20 fold”.
